Earlier results as cited in patent US6624294B2, “Regioselective synthesis of 2′-O-modified nucleosides” (ISIS Pharmaceuticals, Inc., priority 1999, dated 2003).

Conditions: hydroxylamino function

In order of rising pKa:
1. CON(C)C [MeONHMe2]  3.65
2. CON [MeONH2]  4.2
3. CNOC [MeONHMe]  4.75
